Assay results from the NIST ThermoML archive (doi:10.1021/je800110r).

Settings: 303.16 K, Liquid, Vibrating tube method

CCCCCCCCCC [decane]
Settings	mass density [kg/m3]
20929 kPa	738
20946 kPa	738.2
20968 kPa	738.1
20994 kPa	738
21014 kPa	738.1
21034 kPa	738.1
21060 kPa	738.2
21084 kPa	738.1
21107 kPa	738.2
21124 kPa	738.2
21151 kPa	738.1
21174 kPa	738.2
21191 kPa	738.2
21209 kPa	738.2
21226 kPa	738.3
21243 kPa	738.2
21267 kPa	738.4
21293 kPa	738.3
21314 kPa	738.3
21341 kPa	738.3
21358 kPa	738.4
21382 kPa	738.3
21403 kPa	738.3
21424 kPa	738.5
21448 kPa	738.4
21469 kPa	738.5
21490 kPa	738.4
21514 kPa	738.4
21538 kPa	738.4
21560 kPa	738.6
21579 kPa	738.5
21600 kPa	738.5
21622 kPa	738.5
21641 kPa	738.5
21662 kPa	738.6
21686 kPa	738.6
21708 kPa	738.7
21730 kPa	738.6
21745 kPa	738.7
21779 kPa	738.7
21805 kPa	738.6
21827 kPa	738.7
21847 kPa	738.7
21869 kPa	738.6
21891 kPa	738.7
21916 kPa	738.7
21938 kPa	738.8
21962 kPa	738.8
21987 kPa	738.7
22006 kPa	738.8
22029 kPa	738.9
22057 kPa	738.8
22086 kPa	738.8
22108 kPa	738.7
22127 kPa	738.9
22153 kPa	738.8
22178 kPa	738.9
22201 kPa	738.8
22224 kPa	739
22246 kPa	738.9
22269 kPa	738.9
22291 kPa	739.1
22314 kPa	739
22333 kPa	738.9
22360 kPa	739
22380 kPa	739
22410 kPa	739
22436 kPa	739
22463 kPa	739.1
22489 kPa	739.1
22516 kPa	739
22542 kPa	739.1
22565 kPa	739.1
22589 kPa	739.2
22619 kPa	739.2
22647 kPa	739.2
22666 kPa	739.2
22696 kPa	739.3
22723 kPa	739.2
22750 kPa	739.3
22773 kPa	739.3
22801 kPa	739.4
22825 kPa	739.3
22846 kPa	739.3
22870 kPa	739.4
22897 kPa	739.3
22918 kPa	739.3
22950 kPa	739.5
22971 kPa	739.4
22996 kPa	739.5
23013 kPa	739.5
23041 kPa	739.4
23062 kPa	739.5
23097 kPa	739.5
23124 kPa	739.5
23149 kPa	739.6
23174 kPa	739.6
23202 kPa	739.6
23224 kPa	739.6
23257 kPa	739.7
23285 kPa	739.6
23310 kPa	739.6
23339 kPa	739.7
23360 kPa	739.7
23385 kPa	739.6
23411 kPa	739.7
23437 kPa	739.8
23466 kPa	739.7
23495 kPa	739.8
23526 kPa	739.7
23549 kPa	739.7
23575 kPa	739.9
23600 kPa	739.8
23630 kPa	739.9
23652 kPa	739.9
23682 kPa	739.9
23705 kPa	739.9
23735 kPa	739.9
23761 kPa	740
23784 kPa	739.9
23813 kPa	739.9
23845 kPa	740.1
23872 kPa	740
23902 kPa	740.1
23933 kPa	740.1
23968 kPa	740.1
23991 kPa	740.1
24021 kPa	740.2
24048 kPa	740.2
24083 kPa	740.1
24102 kPa	740.1
24133 kPa	740.2
24165 kPa	740.2
24200 kPa	740.3
24235 kPa	740.3
24255 kPa	740.2
24282 kPa	740.4
